In one assay the target is T1, caspase 3 (Homo sapiens, UniProt P42574).
T1 sequence (P42574 29-175 limits assumed): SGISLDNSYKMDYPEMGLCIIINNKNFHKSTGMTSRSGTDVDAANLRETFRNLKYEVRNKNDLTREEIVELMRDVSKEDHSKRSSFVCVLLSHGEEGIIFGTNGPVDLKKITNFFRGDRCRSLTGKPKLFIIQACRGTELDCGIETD
T1 sequence (P42574 176-277 limits assumed): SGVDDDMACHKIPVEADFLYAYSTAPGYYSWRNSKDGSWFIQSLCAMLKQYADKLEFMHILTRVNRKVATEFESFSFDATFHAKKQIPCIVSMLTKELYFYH
The note with it: cited from earlier work.

The target of the next assay is T2, caspase 1 (Homo sapiens, UniProt P29466).
T2 sequence (P29466 120-297 limits assumed): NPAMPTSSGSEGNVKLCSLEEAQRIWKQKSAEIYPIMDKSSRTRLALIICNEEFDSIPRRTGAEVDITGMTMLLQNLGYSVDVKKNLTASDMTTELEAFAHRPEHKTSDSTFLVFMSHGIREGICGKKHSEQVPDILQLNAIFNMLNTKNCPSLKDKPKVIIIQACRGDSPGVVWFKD
T2 sequence (P29466 317-404 limits assumed): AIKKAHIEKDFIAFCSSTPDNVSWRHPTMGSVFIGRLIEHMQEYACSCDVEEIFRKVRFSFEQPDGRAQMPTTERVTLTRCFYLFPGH
To be noted: cited from earlier work.

A further assay addresses T3, caspase 4 (Homo sapiens, UniProt P49662).
T3 sequence (P49662 81-270 limits assumed): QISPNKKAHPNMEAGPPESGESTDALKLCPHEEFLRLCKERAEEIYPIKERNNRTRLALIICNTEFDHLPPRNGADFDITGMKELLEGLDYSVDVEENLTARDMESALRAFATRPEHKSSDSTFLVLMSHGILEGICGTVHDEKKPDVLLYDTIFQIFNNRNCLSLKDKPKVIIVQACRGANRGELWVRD
T3 sequence (P49662 290-377 limits assumed): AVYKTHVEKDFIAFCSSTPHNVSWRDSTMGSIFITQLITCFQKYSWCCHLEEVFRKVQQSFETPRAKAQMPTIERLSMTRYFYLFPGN
To be noted: cited from earlier work.

For another assay, the target named is T4, caspase 7 (Homo sapiens, UniProt P55210).
T4 sequence (P55210 24-198 limits assumed): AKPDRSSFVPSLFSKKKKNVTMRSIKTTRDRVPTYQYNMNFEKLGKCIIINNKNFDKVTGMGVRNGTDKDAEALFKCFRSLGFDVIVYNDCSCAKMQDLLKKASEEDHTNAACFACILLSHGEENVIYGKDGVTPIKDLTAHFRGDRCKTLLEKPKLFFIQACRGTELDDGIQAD
T4 sequence (P55210 207-303 limits assumed): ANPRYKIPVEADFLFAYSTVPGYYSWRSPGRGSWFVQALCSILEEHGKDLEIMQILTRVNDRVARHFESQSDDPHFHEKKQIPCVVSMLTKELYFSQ
The note with it: cited from earlier work.

The subject of the next assay is photoreceptor cells. Description: TUNEL staining of outer nuclear layer after experimental retinal detachment. The note with it: detached retina (left eye); 5 μl of 2 mM in DMSO subretinal; 72 hours after detachment; TUNEL-positive cells/100 cells in outer nuclear layer. It is filed as in vivo, Brown Norway rats. As to the method: Briefly, the retinal detachments were created in the left eyes of three Brown Norway rats, as described in Example 2, section 2.1. The detachment was located on the temporal portion of the retina, and comprised approximately one third of the total retinal area.
A first rat received the retinal detachment only. A second rat received the retinal detachment and a caspase 9 inhibitor in DMSO. Briefly, immediately after the retina was detached, 5 μl of the zLEHD.fmk (2 mM solution in DMSO) (BioVision) was injected into the subretinal space of the detached retina using a Hamilton Syringe (Hamilton Corp, Reno, Nev.). A third rat received the retinal detachment and DMSO (solvent control). Briefly, 5 μl of DMSO was injected into the subretinal space of the detached retinas as a control for the solvent in which the zLEHD.fmk was dissolved.
The rats were allowed to recover from the surgery and were returned to their cages, as per standard animal care protocols. Seventy-two hours (3 days) after creation of the detachments, the eyes were enucleated and immersion-fixed in 4% paraformaldehyde solution for 24 hours. The fixed eyes were then embedded in paraffin and sectioned for histologic analysis. […]
The number of TUNEL-positive cells/100 cells in the outer nuclear layer were counted for 3 high power fields per section for 2 separate slides.

In a further assay the test system is caspase 9. Nature of the assay: Caspase 9 activity (LEHD-pNA cleavage) in detached retina after injection of inhibitor at the time of detachment. To be noted: 5 μl of 2 mM solution in DMSO into the subretinal space, 24 hours after retinal detachment, normalized to attached retina. It is filed as in vivo, Brown-Norway rats. As to the method:
Briefly, rats were anesthetized with a 50:50 mix of ketamine (100 mg/ml) and xylazine (20 mg/ml), and pupils were dilated with topical phenylephrine (2.5%) and tropicamide (1%). A sclerotomy was created approximately 2 mm posterior to the limbus with a 20-guage microvitreoretinal blade (Walcott Scientific, Marmora, N.J.), with special caution to not damage the lens. A Glaser subretinal injector (32-gauge tip; BD Ophthalmic Systems, Sarasota, Fla.) connected to a syringe filled with 10 mg/ml sodium hyaluronate (Healon®; Pharmacia and Upjohn Co., Kalamazoo, Mich.) was introduced through the sclerotomy into the vitreous cavity. The tip of the subretinal injector was introduced into the subretinal space through a peripheral retinotomy, and the sodium hyaluronate was slowly injected. The neurosensory retina was thus detached from the underlying retinal pigment epithelium. In all experiments, approximately one-third to one-half of the retina was detached. Detachments were made in the left eye, with the right eye serving as the control. […]
Caspase 9 activity was measured using a calorimetric tetrapeptide LEHD-pNA cleavage assay kit according to the manufacturer's instructions (BioVision, Mountain View, Calif.). […] Absorbance was measured at 405 nm in a microplate reader (SpectraMAX 190, Molecular Devices). […]

pKi: −log10 of the molar value.

By pKi is commonly meant −log10 of the Ki, conventionally taken in molar units. As for Ac-Tyr-Val-Ala-Asp-aldehyde, the pKi at caspase 3 is at most 4.30; on caspase 1 it was 8.00; at caspase 4, 8.00; at caspase 7 it was at most 4.30.
Regarding “z-Leu-Glu-His-Asp-fluoromethylketone [zLEHD.fmk]”, in the assay with photoreceptor cells, the “% TUNEL positive cells” value was determined as 4.6% TUNEL positive. Also, in the assay with caspase 9, the “caspase 9 activity, % of the control level” value is “approximately 50%”.

These data come from patent publication US7811832B2, “Methods for preserving the viability of photoreceptor cells by anti-FAS-ligand/anti-FAS-receptor antibodies” (Massachusetts Eye and Ear Infirmary, priority 2002, dated 2010).
